Active and inactive are the calls of the source. Bounds are passed on as bounds.

In one experiment the target is Major prion protein (Homo sapiens, UniProt P04156). Type of experiment: functional, cell-based.
Experiment [1] has as its target Mitogen-activated protein kinase 10 (Homo sapiens, UniProt P53779). The experiment is described as follows: Dose response biochemical screening assay for inhibitors of c-Jun N-Terminal Kinase 3 (JNK3). [Related pubchem assays: 746 ].
A further experiment deals with T1, Protein skinhead-1 (Caenorhabditis elegans, UniProt P34707).
T1 sequence (P34707 whole entry): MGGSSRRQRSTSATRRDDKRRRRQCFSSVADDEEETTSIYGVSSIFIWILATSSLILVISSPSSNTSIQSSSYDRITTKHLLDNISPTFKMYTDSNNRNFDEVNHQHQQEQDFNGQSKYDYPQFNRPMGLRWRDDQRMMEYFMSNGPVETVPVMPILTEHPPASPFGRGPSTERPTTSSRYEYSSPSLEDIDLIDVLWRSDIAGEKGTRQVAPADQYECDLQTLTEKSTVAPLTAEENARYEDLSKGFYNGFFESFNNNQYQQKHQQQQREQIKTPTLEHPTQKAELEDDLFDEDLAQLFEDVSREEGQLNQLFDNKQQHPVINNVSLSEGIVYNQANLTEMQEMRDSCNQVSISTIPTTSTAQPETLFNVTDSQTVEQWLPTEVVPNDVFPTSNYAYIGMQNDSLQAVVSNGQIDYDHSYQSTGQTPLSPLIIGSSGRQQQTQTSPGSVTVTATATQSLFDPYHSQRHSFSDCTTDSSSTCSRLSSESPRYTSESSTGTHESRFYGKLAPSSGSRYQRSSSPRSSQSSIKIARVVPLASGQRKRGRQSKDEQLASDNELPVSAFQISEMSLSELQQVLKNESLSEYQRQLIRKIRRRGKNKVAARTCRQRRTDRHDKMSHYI
The experiment is classed as functional.

Experiment [2] concerns the target T2, Aryl hydrocarbon receptor (Homo sapiens, UniProt P35869).
T2 sequence (P35869 whole entry): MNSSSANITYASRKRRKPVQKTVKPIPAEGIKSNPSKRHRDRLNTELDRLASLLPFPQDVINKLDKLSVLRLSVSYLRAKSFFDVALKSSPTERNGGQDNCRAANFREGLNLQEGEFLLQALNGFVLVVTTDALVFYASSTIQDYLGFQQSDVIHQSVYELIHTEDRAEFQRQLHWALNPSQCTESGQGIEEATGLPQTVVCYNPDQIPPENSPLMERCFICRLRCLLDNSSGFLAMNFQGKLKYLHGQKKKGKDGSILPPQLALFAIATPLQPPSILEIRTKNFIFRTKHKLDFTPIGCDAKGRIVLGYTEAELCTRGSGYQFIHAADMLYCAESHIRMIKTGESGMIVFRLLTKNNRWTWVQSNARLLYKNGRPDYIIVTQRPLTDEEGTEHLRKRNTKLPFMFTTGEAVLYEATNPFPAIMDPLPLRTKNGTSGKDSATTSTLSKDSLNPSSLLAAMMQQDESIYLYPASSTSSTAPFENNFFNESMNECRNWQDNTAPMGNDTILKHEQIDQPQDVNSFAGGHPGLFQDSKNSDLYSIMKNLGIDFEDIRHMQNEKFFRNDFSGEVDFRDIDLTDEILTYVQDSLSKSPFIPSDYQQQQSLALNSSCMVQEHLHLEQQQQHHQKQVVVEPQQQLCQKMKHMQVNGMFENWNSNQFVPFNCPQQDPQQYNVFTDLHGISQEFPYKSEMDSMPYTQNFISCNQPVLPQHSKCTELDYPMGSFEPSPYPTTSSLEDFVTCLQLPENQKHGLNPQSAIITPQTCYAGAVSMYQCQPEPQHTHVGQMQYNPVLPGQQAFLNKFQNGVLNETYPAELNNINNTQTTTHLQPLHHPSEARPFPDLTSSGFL
Description: Luminescence-based cell-based high throughput dose response assay for activators of the Aryl Hydrocarbon Receptor (AHR). [Related pubchem assays: 2796 (Primary screen (AHR activators in singlicate)), 2845 (Confirmation screen (AHR activators in triplicate)), 434939 (Counterscreen (PXR activators in triplicate)), 2804 (Summary (AHR activators))]. The experiment is classed as ADME. (A counterscreen serves to expose hits that act by an unwanted route or on another target.)

The nature of experiment [3]: Luminescence Cell-Based Dose Confirmation to Identify Activators of 5'UTR Stem-Loop Driven Alpha-Synuclein mRNA Translation in H4 Neuroglioblastoma Cells. [Related pubchem assays: 1829 (Project Summary), 1814 (Primary HTS)]. Type of experiment: functional.
Experiment [4] in a line: Luminescence Cell-Based Dose Response HTS to Identify Activators of Luciferase Translation or Activity in H4 […] Cells. [Related pubchem assays: 1829 (Project Summary), 1814 (Primary HTS)]. Type of experiment: functional.
Experiment [5] is described as follows: Luminescence Cell-Based Dose Response to Identify Activators of 5'UTR Stem-Loop Driven Prion Protein mRNA Translation in H4-C Neuroglioblastoma Cells. [Related pubchem assays: 1829 (Project Summary), 1814 (Primary HTS)]. Type of experiment: functional.
The next experiment has as its target T3, Protein RecA (Mycobacterium tuberculosis, UniProt P9WHJ3).
T3 sequence (P9WHJ3 whole entry): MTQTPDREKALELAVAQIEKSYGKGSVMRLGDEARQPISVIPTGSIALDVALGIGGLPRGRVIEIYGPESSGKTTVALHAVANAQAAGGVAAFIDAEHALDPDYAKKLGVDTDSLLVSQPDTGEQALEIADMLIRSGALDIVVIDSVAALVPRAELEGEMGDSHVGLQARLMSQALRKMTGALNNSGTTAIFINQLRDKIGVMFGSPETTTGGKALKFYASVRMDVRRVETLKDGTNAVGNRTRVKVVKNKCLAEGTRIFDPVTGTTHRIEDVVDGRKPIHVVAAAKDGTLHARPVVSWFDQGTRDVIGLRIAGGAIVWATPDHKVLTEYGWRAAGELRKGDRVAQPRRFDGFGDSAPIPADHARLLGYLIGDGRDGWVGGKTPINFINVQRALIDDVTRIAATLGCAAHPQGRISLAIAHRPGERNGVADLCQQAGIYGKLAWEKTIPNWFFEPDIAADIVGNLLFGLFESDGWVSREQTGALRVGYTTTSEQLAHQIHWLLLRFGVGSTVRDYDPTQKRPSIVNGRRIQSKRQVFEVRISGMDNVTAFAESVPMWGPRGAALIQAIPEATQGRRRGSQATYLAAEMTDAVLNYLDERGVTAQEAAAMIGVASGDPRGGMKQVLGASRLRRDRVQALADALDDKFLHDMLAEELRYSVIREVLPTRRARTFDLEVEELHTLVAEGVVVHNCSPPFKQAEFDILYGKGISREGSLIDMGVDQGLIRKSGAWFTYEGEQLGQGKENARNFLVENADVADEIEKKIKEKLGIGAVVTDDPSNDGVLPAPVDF
The experiment is described as follows: Fluorescence Cell-Free Homogeneous Dose Retest to Identify Inhibitors of RecA-Intein Splicing Activity. [Related pubchem assays (depositor defined):AID2097, AID2223, AID489010, AID492950]. The experiment is classed as functional.

For experiment [6], the target named is T4, Microphthalmia-associated transcription factor (Homo sapiens, UniProt O75030).
T4 sequence (O75030 whole entry): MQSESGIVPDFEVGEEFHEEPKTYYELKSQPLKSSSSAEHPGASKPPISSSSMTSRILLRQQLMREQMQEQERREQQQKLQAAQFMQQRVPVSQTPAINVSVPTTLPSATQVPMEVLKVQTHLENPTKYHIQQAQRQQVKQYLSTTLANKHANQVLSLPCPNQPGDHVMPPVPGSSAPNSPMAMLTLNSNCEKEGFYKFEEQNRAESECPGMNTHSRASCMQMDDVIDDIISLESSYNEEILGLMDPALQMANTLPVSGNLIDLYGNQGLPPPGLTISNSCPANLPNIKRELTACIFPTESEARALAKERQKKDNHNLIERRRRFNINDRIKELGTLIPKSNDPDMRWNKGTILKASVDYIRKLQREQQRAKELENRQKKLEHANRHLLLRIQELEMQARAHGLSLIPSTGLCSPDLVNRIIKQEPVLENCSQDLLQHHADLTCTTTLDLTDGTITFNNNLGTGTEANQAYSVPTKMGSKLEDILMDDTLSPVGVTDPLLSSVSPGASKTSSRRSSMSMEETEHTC
Description: TRPM1 promoter luciferase signal decrease, dose response, MITF inhibitor project, cell-based, SK-MEL-5, cherry-picked, set 3 (AID 493073).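 Also: SK-MEL-5 melanoma cells with luciferase driven by the MITF target TRPM1 promoter.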 The experiment is classed as functional.

A short description of experiment [7]: Luminescence Cell-Based Dose Response to Identify Activators of Luciferase Translation or Activity in H4-C Neuroglioblastoma Cells. [Related pubchem assays: 1829 (Project Summary), 1814 (Primary HTS)]. Type of experiment: functional.
Experiment [8] addresses T5, Replicative DNA helicase DnaB (Mycobacterium tuberculosis, UniProt P9WMR3).
T5 sequence (P9WMR3 whole entry): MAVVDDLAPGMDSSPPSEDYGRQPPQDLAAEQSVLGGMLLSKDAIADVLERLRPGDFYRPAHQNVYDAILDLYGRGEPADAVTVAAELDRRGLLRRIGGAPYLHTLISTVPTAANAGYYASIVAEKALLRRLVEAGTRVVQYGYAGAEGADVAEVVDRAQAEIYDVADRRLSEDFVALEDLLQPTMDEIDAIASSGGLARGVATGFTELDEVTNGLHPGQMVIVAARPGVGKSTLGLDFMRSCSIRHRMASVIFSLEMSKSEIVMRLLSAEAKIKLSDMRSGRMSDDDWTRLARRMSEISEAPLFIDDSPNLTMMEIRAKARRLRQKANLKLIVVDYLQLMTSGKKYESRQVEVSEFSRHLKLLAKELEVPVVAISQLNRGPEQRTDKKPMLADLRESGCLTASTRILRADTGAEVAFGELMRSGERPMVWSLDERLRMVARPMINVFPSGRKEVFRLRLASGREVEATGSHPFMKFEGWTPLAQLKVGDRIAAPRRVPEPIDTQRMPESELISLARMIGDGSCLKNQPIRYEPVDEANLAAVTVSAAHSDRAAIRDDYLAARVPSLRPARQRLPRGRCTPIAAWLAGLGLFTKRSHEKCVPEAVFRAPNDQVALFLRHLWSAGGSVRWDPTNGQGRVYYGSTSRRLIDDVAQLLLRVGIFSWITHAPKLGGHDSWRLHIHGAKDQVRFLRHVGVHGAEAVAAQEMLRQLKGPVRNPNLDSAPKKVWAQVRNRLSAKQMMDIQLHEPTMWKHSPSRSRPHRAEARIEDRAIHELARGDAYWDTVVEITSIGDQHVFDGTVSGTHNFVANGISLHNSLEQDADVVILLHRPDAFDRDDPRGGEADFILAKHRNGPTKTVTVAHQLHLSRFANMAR
The experiment is described as follows: DnaB intein splicing inhibitors, dose response, biochemical, cell-free fluorescence (AID 449749). Type of experiment: functional.

In another experiment the test system is H4. The experiment is described as follows: Luminescence Cell-Based Dose Response HTS to Identify Activators of 5'UTR Stem-Loop Driven Prion Protein mRNA Translation in H4 Neuroglioblastoma Cells. [Related pubchem assays: 1829 (Project Summary), 1814 (Primary HTS)]. The experiment is classed as functional. The settings on record: Homo sapiens.
Experiment [9] is described as follows: Luminescence Cell-Based Dose Confirmation HTS to Identify Activators of 5'UTR Stem-Loop Driven Alpha-Synuclein mRNA Translation in H4 Neuroglioblastoma Cells. [Related pubchem assays: 1829 (Project Summary), 1814 (Primary HTS)]. Type of experiment: functional.

Mitogen-activated protein kinase 10, sequence (P53779 whole entry): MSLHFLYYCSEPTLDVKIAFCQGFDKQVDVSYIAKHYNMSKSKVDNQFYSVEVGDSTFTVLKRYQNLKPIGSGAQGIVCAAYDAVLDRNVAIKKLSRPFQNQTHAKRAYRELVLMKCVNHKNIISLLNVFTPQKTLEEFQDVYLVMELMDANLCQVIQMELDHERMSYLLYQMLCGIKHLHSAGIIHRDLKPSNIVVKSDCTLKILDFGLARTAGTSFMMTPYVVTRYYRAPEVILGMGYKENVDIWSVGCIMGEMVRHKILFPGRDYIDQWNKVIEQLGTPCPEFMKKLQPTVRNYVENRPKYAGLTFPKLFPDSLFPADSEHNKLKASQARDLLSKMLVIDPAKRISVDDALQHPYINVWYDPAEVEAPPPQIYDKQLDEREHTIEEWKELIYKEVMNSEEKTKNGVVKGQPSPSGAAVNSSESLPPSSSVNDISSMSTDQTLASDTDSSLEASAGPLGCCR

As to `COc1ccc(-c2nnc(-c3ccc(Br)o3)o2)cc1OC`, the IC50 on Major prion protein was 4.59 µM (active); in “cells” it was > 138 µM (inactive); in [1] it was > 93.1 µM (not active); at Protein skinhead-1 it was > 100 µM (inactive).

For `CC(=O)Nc1cccc2c1C(=O)N(c1ccc(C)cc1)C2=O`, the EC50 in [2] was 1.09 µM (active).

Take `O=C(CCl)Nc1cccc(-c2cnc3ccccc3n2)c1`: the EC50 in experiment [3] was 0.7 µM (active); in experiment [4] it was 2.98 µM (active); in [5] it was > 12 µM (not active); on Protein RecA, 13.3 µM (active); in experiment [7], 0.561 µM (active); in the experiment with H4, > 60 µM (not active). The EC50 in experiment [9] was < 0.1 µM (active). In addition, the AC50 in [6] was 4.02 µM (active); in [8], 53.1 µM (active).

For `Cc1nc(N)nc(Nc2ccc(Cl)cc2)c1Br`, the EC50 in [2] was 0.351 µM (active).

In the case of `Oc1ncnc2nn(-c3ccccc3)nc12`, the EC50 in [3] is > 12 µM (not active); in experiment [4], > 120 µM (not active); in experiment [5], 4.54 µM (active); in experiment [7] it was > 12 µM (not active); in the experiment with H4, > 120 µM (not active); in experiment [9], < 0.1 µM (active).

Take `CC(=O)Nc1cccc(OCC(=O)Nc2ccc(F)cc2)c1`: the EC50 in [2] is 10.6 µM (not active).

For `O=C(O)CCSc1ccc2ccccc2n1`, the IC50 on Major prion protein was 3.19 µM (active); in “cells” it was > 138 µM (inactive); in experiment [1], 34.8 µM (not active).

On to `CCc1cc(/C(Cc2ccc3ccccc3n2)=N\O)c(O)cc1O`, for which the EC50 in experiment [2] is > 3.39 µM (active).

For orientation: IC50 means the point on the concentration scale where inhibition reaches its midpoint. The term EC50 denotes the concentration giving half of the maximal effect. The AC50 is the concentration giving half of the maximal activity seen.

The record behind these values is ChEMBL document CHEMBL1201862, “PubChem BioAssay data set” (2004).
